# Source: patent US8318976B2, “Salts, aqueous liquid compositions containing salts of S-(+)-abscisic acid and methods of their preparation” (Valent BioSciences Corporation, priority 2007, dated 2012)
# Like-named read-outs stand apart in the source and are kept apart here.
# Assays:
# [1] = system: tomato leaf transpiration; experiment: Tomato leaf transpiration rate after foliar spray (LI-1600 porometer); format: in vivo, Tomato (variety: Rutgers); settings: for Transpiration rate (% of control), 3-Day Average: average of days 1-3; for Transpiration rate (% of control), Days after treatment 1: day 1; for Transpiration rate (% of control), Days after treatment 2: day 2; for Transpiration rate (% of control), Days after treatment 3: day 3
# Procedure: Preparation of plant specimens for use in the treatment studies of the EXAMPLES that follow was carried out as follows. Tomato (variety: Rutgers) seeds were sown in an 18-cell flat filled with Promix PGX (available from Premier Horticulture Inc., Quakertown Pa.) and grown for 3 weeks to allow for germination and initial growth. Plants were then transplanted into pots (18 cm in diameter and 18 cm in height), filled with Promix BX (available from Premier Horticulture Inc., Quakertown Pa.), and grown for one or two more weeks before treatment, depending on temperature and available light. Plants received daily irrigation and weekly fertilizer (1 g/L all purpose fertilizer 20-20-20, available from The Scotts Company, Marysville, Ohio).
# All treatment solutions were made up with distilled water. The (S)-(+)-abscisic acid (95% active ingredient) is available from Lomon BioTechnology Co., Ltd. (Shichuan, China). Twenty L of a 250 ppm solution of (S)-(+)-abscisic acid was prepared and stored in the dark at 20-25° C. This same 250-ppm (S)-(+)-abscisic acid solution was used as a control for all studies to eliminate the possibility of applying an incorrect concentration.
# All experiments were conducted using a randomized complete block experimental design. Solutions of (S)-(+)-abscisic acid and blank treatments (plain water) were applied by spray to the aerial parts of the tomato plants at the rate of 20 mL per 6 plants. Plants were then placed in a transparent chamber with humidity controlled within the range of 40 to 60% relative humidity. Leaf transpiration rates were measured at 1, 2 and 3 days after treatment. Measurements were conducted using a LI-1600 Steady State Porometer (LI-Cor, Lincoln, Nebr.). Each day the transpiration rate of the plants of each treatment group was normalized to a percentage of the transpiration rate of untreated plants (plants sprayed with water only) in order to control for day-to-day variability in plant status caused by changes of environmental conditions such as light intensity and temperature. Data of each plant was also averaged over a 3-day period to balance the short term and long term effect of (S)-(+)-abscisic acid on tomato leaf transpiration as well as to reduce experimental variability.
# [2] = system: California Blackeye Pea (cowpea); experiment: Phytotoxicity and growth after foliar application; format: in vivo; settings: for % Leaf Area Damaged 3 days after treatment: monofoliate leaves
# Procedure: Phytotoxicity is defined as damage to a plant caused by treatment with an externally applied chemical substance. Phytotoxicity caused by application of an agricultural chemical is considered highly undesirable (except in the case of herbicides). To test the relative safety of the compositions of the present invention, comprising an ammonium salt of (S)-(+)-abscisic acid, as compared to compositions of the prior art, comprising an ammonium salt of (R,S)-(±)-abscisic acid, plants were treated with solutions containing two different concentrations of the (S)-(+)-abscisic acid or with solutions containing (R,S)-(±)-abscisic acid at concentrations in which either the total concentration of (R,S)-(±)-abscisic acid was equal to the higher concentration of (S)-(+)-abscisic acid or in which the concentration of (S)-(+)-abscisic acid contained in the (R,S)-(±)-abscisic acid was equal to the higher treatment concentration of the pure (S)-(+)-abscisic acid. California Blackeye Pea (cowpea) seed was planted into 18 cell flats filled with Promix PGX in a greenhouse. When the plants had grown to a point where the monofoliate leaves were fully expanded and the first trifoliate leaves were emerging (18 days after planting) the plants were sprayed with 1.5 ml of treatment solution. After treatment the plants were held in the greenhouse and evaluated for damage to the monofoliate leaves and also for growth of the trifoliate leaves. The percentage of the monofoliate leaf area that was damaged was estimated three days after treatment, and monofoliate leaf abscission and trifoliate leaf development were determined on the fifth day after treatment.
# [3] = literature reports; cited from earlier work
# [4] = cited from earlier work; for highest concentration achievable in water: pure water, room / ordinary ambient temperature
smiles,measurement,setting,value
"CC1=CC(=O)CC(C)(C)C1(O)/C=C/C(C)=C\C(=O)O.N (racemic) [(R,S)-(±)-abscisic acid ammonium salt]","Transpiration rate (% of control), 3-Day Average","[1]; Table 8, 250 ppm spray",90.95 % of control
same,"Transpiration rate (% of control), Days after treatment 1","[1]; Table 8, 250 ppm spray",90.26 % of control
same,"Transpiration rate (% of control), Days after treatment 2","[1]; Table 8, 250 ppm spray",87.73 % of control
same,"Transpiration rate (% of control), Days after treatment 3","[1]; Table 8, 250 ppm spray",94.86 % of control
same,"Transpiration rate (% of control), 3-Day Average","[1]; Table 8, 500 ppm spray",81.03 % of control
same,"Transpiration rate (% of control), Days after treatment 1","[1]; Table 8, 500 ppm spray",77.53 % of control
same,"Transpiration rate (% of control), Days after treatment 2","[1]; Table 8, 500 ppm spray",76.20 % of control
same,"Transpiration rate (% of control), Days after treatment 3","[1]; Table 8, 500 ppm spray",89.36 % of control
same,Average Number of Abscised Monofoliate Leaves 5 days after treatment,[2]; 6250 ppm foliar spray,1.7
same,Average Number of New Trifoliate Leaves 5 days after treatment,[2]; 6250 ppm foliar spray,0.0
same,% Leaf Area Damaged 3 days after treatment,[2]; 6250 ppm foliar spray,97%
same,Average Number of Abscised Monofoliate Leaves 5 days after treatment,[2]; 12500 ppm foliar spray,2.0
same,Average Number of New Trifoliate Leaves 5 days after treatment,[2]; 12500 ppm foliar spray,0.0
same,% Leaf Area Damaged 3 days after treatment,[2]; 12500 ppm foliar spray,100%
same,"relative phytotoxicity, (S)-(+)- vs (R,S)-(±)-abscisic acid salt",[2]; equal total dose or equal (S)-(+)-enantiomer dose,more phytotoxicity
CC1=CC(=O)CC(C)(C)[C@]1(O)/C=C/C(C)=C\C(=O)O [(R)-(−)-abscisic acid],biological activity,[3],biologically inactive
"CC1=CC(=O)CC(C)(C)[C@@]1(O)/C=C/C(C)=C\C(=O)O [(S)-(+)-abscisic acid, 2-cis-, 4-trans-(S)-(+)-abscisic acid]",solubility in hard water,"[4]; hard water, compared with pure water",even less
same,solubility in propylene glycol,[4]; propylene glycol,poorly soluble
same,highest concentration achievable in water,[4],≤ 3000 ppm
same,highest concentration achievable in water,[4]; listed as abscisic acid,about 3000 ppm
same,"Transpiration rate (% of control), 3-Day Average","[1]; Table 1, 250 ppm spray",87.02 % of control
same,"Transpiration rate (% of control), Days after treatment 1","[1]; Table 1, 250 ppm spray",75.59 % of control
same,"Transpiration rate (% of control), Days after treatment 2","[1]; Table 1, 250 ppm spray",89.83 % of control
same,"Transpiration rate (% of control), Days after treatment 3","[1]; Table 1, 250 ppm spray",95.63 % of control
same,"Transpiration rate (% of control), 3-Day Average","[1]; Table 2, 250 ppm spray",87.02 % of control
same,"Transpiration rate (% of control), Days after treatment 1","[1]; Table 2, 250 ppm spray",75.59 % of control
same,"Transpiration rate (% of control), Days after treatment 2","[1]; Table 2, 250 ppm spray",89.83 % of control
same,"Transpiration rate (% of control), Days after treatment 3","[1]; Table 2, 250 ppm spray",95.63 % of control
same,"Transpiration rate (% of control), 3-Day Average","[1]; Table 3, 250 ppm spray",80.78 % of control
same,"Transpiration rate (% of control), Days after treatment 1","[1]; Table 3, 250 ppm spray",72.66 % of control
same,"Transpiration rate (% of control), Days after treatment 2","[1]; Table 3, 250 ppm spray",76.18 % of control
same,"Transpiration rate (% of control), Days after treatment 3","[1]; Table 3, 250 ppm spray",93.50 % of control
same,"Transpiration rate (% of control), 3-Day Average","[1]; Table 4, 250 ppm spray",83.21 % of control
same,"Transpiration rate (% of control), Days after treatment 1","[1]; Table 4, 250 ppm spray",75.30 % of control
same,"Transpiration rate (% of control), Days after treatment 2","[1]; Table 4, 250 ppm spray",83.65 % of control
same,"Transpiration rate (% of control), Days after treatment 3","[1]; Table 4, 250 ppm spray",90.68 % of control
same,"Transpiration rate (% of control), 3-Day Average","[1]; Table 5, 250 ppm spray",69.00 % of control
same,"Transpiration rate (% of control), Days after treatment 1","[1]; Table 5, 250 ppm spray",59.35 % of control
same,"Transpiration rate (% of control), Days after treatment 2","[1]; Table 5, 250 ppm spray",71.02 % of control
same,"Transpiration rate (% of control), Days after treatment 3","[1]; Table 5, 250 ppm spray",76.62 % of control
same,"Transpiration rate (% of control), 3-Day Average","[1]; Table 7, 250 ppm spray",78.21 % of control
same,"Transpiration rate (% of control), Days after treatment 1","[1]; Table 7, 250 ppm spray",71.16 % of control
same,"Transpiration rate (% of control), Days after treatment 2","[1]; Table 7, 250 ppm spray",75.23 % of control
same,"Transpiration rate (% of control), Days after treatment 3","[1]; Table 7, 250 ppm spray",88.25 % of control
same,"Transpiration rate (% of control), 3-Day Average","[1]; Table 8, 250 ppm spray",78.21 % of control
same,"Transpiration rate (% of control), Days after treatment 1","[1]; Table 8, 250 ppm spray",71.16 % of control
same,"Transpiration rate (% of control), Days after treatment 2","[1]; Table 8, 250 ppm spray",75.23 % of control
same,"Transpiration rate (% of control), Days after treatment 3","[1]; Table 8, 250 ppm spray",88.25 % of control
"CC(C=C[C@@]1(O)C(C)=CC(=O)CC1(C)C)=CC(=O)O [(S)-(+)-2-trans-,4-trans-isomer]",biological activity,[3],biologically inactive
